In patent publication US11109593B2, “Isoxazolin-5-one derivative and herbicide containing same as active ingredient” (HOKKO CHEMICAL INDUSTRY CO., LTD., priority 2017, dated 2021):

Key:
Format in all cases: in vivo
[1] = tested on: Echinochloa crus-galli; assay: Test Example 1: herbicidal effect test by treatment of rice paddy soil (immediately after seeding); settings: 120 g/10a active ingredient, dry weight vs untreated area, 14 days after treatment
Summary of the method: (§1)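 Puddled, fertilized (N:P:K=17:17:17) paddy soil in Wagner pots; seeds sown 0–1 cm deep, flooded to about 3 cm. Emulsifiable formulations diluted in water and dropped into the water immediately after seeding at 120 g active ingredient per 10 ares; greenhouse. Herbicidal rate from dry weight vs untreated at 14 days.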

[2] = tested on: Scirpus juncoides; assay: as above; settings: 120 g/10a active ingredient, dry weight vs untreated area, 14 days after treatment
Summary of the method: as §1

[3] = tested on: broad leaf weeds (Lindernia pyxidaria and Monochoria vaginalis); assay: as above; settings: 120 g/10a active ingredient, dry weight vs untreated area, 14 days after treatment
Summary of the method: as §1

[4] = tested on: Echinochloa crus-galli; assay: Test Example 2: herbicidal effect test by treatment during growing period in paddy rice cultivation (seven days after seeding); settings: 120 g/10a active ingredient, assessed 14 days after treatment, dry weight vs untreated area
Summary of the method: (§2)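 Paddy soil in Wagner pots with compound fertilizer, puddled; 30 seeds per species sown at 0–1 cm, flooded ~3 cm, greenhouse. Seven days after seeding, water-diluted emulsions were dropped into the water at 120 g active ingredient per 10 ares. Duplicate pots; herbicidal rate from dry weight versus untreated, 14 days after treatment.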

[5] = tested on: Scirpus juncoides; assay: as above; settings: 120 g/10a active ingredient, assessed 14 days after treatment, dry weight vs untreated area
Summary of the method: as §2

[6] = tested on: broad leaf weeds (Lindernia pyxidaria and Monochoria vaginalis); assay: as above; settings: 120 g/10a active ingredient, assessed 14 days after treatment, dry weight vs untreated area
Summary of the method: as §2

[7] = tested on: Amaranthus viridis; assay: Test Example 3: herbicidal effect test by treatment of dry field farming soil (one day after seeding); settings: 120 g/10a active ingredient, evaluated 14 days after treatment
Summary of the method: (§3)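 Pre-emergence soil treatment: alluvial dry-field soil, 20 seeds per species mixed into top 1 cm, emulsion diluted in water sprayed one day after seeding at 100 L per 10 ares (120 g active ingredient per 10 ares). Duplicate pots; herbicidal rate (%) from dry weight vs untreated at 14 days.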

[8] = tested on: Chenopodium album; assay: as above; settings: 120 g/10a active ingredient, evaluated 14 days after treatment
Summary of the method: as §3

[9] = tested on: Echinochloa crus-galli; assay: as above; settings: 120 g/10a active ingredient, evaluated 14 days after treatment
Summary of the method: as §3

[10] = tested on: southern crabgrass; assay: as above; settings: 120 g/10a active ingredient, evaluated 14 days after treatment
Summary of the method: as §3

[11] = tested on: Amaranthus viridis; assay: Test Example 4: herbicidal effect test by treatment of leave and stem in dry field farming (seven days after seeding); settings: 120 g/10a active ingredient; emulsion sprayed seven days after seeding; evaluated 14 days after treatment
Protocol: (§4) This test was conducted in a double system per one agent solution concentration area, and the herbicidal rates (%) were determined by the following equation (Math. 1) on 14 days after the treatment with the agents. Herbicidal Rate (%)={1-(Average Dry Weight (g) of Plant of Treated Area)/(Average Dry Weight (g) of Plant of Untreated Area)}×100 [Math. 1]
(§5) Herbicidal Effect Test by Treatment of Leave and Stem in Dry Field Farming
(§6) Pots with a size of 36 cm^2 were filled with a dry field farming soil (alluvium). The soil of the top layer of 1 cm and seeds of weeds, namely southern crabgrass, Echinochloa crus-galli, Chenopodium album and Amaranthus viridis, 20 seeds each, were evenly mixed, and the top layer was gently pressed. Emulsions prepared using the compounds in Table 6 below according to Formulation Example 5 were diluted with water seven days after seeding, and the water-diluted agent solutions were sprayed to the soil surfaces at a ratio of 100 liters per 10 ares. The converted amount of the applied active ingredient corresponded to 120 g per 10 ares. The herbicidal effects were evaluated by the same standard as that in Test Example 1 on 14 days after the treatment with the agents. […] The compound numbers in Table 6 are the same as those in Table 1 and Table 2 above.

[12] = tested on: Chenopodium album; assay: as above; settings: 120 g/10a active ingredient; emulsion sprayed seven days after seeding; evaluated 14 days after treatment
Protocol: as §4, §5, §6

[13] = tested on: Echinochloa crus-galli; assay: as above; settings: 120 g/10a active ingredient; emulsion sprayed seven days after seeding; evaluated 14 days after treatment
Protocol: as §4, §5, §6

[14] = tested on: southern crabgrass; assay: as above; settings: 120 g/10a active ingredient; emulsion sprayed seven days after seeding; evaluated 14 days after treatment
Protocol: as §4, §5, §6

SMILES | Herbicidal rate (%) Echinochloa crus-galli [1] [%] | Herbicidal rate (%) Scirpus juncoides [2] [%] | Herbicidal rate (%) Lindernia pyxidaria [3] [%] | Herbicidal rate (%) Monochoria vaginalis [3] [%] | Herbicidal rate (%) Echinochloa crus-galli [4] [%] | Herbicidal rate (%) Scirpus juncoides [5] [%] | Herbicidal rate (%) Lindernia pyxidaria [6] [%] | Herbicidal rate (%) Monochoria vaginalis [6] [%] | herbicidal rate, Amaranthus viridis [7] [%] | herbicidal rate, Chenopodium album [8] [%] | herbicidal rate, Echinochloa crus-galli [9] [%] | herbicidal rate, southern crabgrass [10] [%] | herbicidal effect (herbicidal rate), Amaranthus viridis [11] [%] | herbicidal effect (herbicidal rate), Chenopodium album [12] [%] | herbicidal effect (herbicidal rate), Echinochloa crus-galli [13] [%] | herbicidal effect (herbicidal rate), southern crabgrass [14] [%]
CCC(C)n1oc(=O)c(Cc2ccccc2N(C(=O)OCc2ccccc2)S(=O)(=O)C(F)(F)F)c1C (single isomer, unassigned) [1-783 (TLC bottom)] | 90 | 90 | 90 | 90 | 90 | 90 | 90 | 90 | 90 | 90 | 90 | 90 | 40 | 40 | 90 | 90
CCC(C)Cn1oc(=O)c(Cc2ccccc2N(C(=O)OCc2ccccc2)S(=O)(=O)C(F)(F)F)c1C (single isomer, unassigned) [1-789 (TLC bottom)] | 100 | 90 | 90 | 90 | 100 | 90 | 60 | 90 | 70 | 80 | 90 | 60 | 60 | 40 | 50 | 50
Cc1c(Cc2ccccc2N(S(=O)(=O)C(F)(F)F)S(=O)(=O)C(F)(F)F)c(=O)on1CCCl [Compound 1-983] | 70 | 90 | 90 | 90 | 40 | 80 | 80 | 80 | – | – | – | – | 40 | 0 | 60 | 40
CSCCn1oc(=O)c(Cc2ccccc2N(S(=O)(=O)C(F)(F)F)S(=O)(=O)C(F)(F)F)c1C [Compound 1-1002] | 100 | 100 | 100 | 100 | 90 | 80 | 60 | 80 | – | – | – | – | 50 | 70 | 90 | 60
CSCCCn1oc(=O)c(Cc2ccccc2N(S(=O)(=O)C(F)(F)F)S(=O)(=O)C(F)(F)F)c1C [Compound 1-1003] | 100 | 90 | 90 | 90 | 100 | 90 | 70 | 70 | – | – | – | – | 40 | 0 | 60 | 40
Cc1c(Cc2ccccc2N(S(=O)(=O)C(F)(F)F)S(=O)(=O)C(F)(F)F)c(=O)on1C(C)c1ccccc1 (centres unmarked) [Compound 1-1030] | 90 | 90 | 100 | 100 | 90 | 90 | 90 | 90 | – | – | – | – | 40 | 40 | 90 | 40
CCCCCC(c1ccccc1)n1oc(=O)c(Cc2ccccc2N(S(=O)(=O)C(F)(F)F)S(=O)(=O)C(F)(F)F)c1C (centres unmarked) [Compound 1-1042] | 90 | 90 | 90 | 80 | 60 | 70 | 60 | 60 | – | – | – | – | 40 | 40 | 0 | 50
Cc1c(Cc2ccccc2N(S(=O)(=O)C(F)(F)F)S(=O)(=O)C(F)(F)F)c(=O)on1CC(C)c1ccccc1 (centres unmarked) [Compound 1-1046] | 100 | 90 | 70 | 80 | 90 | 90 | 60 | 90 | – | – | – | – | 90 | 0 | 90 | 60
